These results are taken from paper PMC5577376 (Nature chemical biology, 2017).

The structures appear in SMILES notation. Entries after “also recorded” stand apart in the source; their conditions may differ.

Experiment [1] has as its system cellular neddylation / ubiquitination. The settings on record: cited from earlier work.
In experiment [2] the test system is cullin neddylation in HCC95 cells. The experiment is described as follows: Cullin neddylation immunoblot, HCC95. Particulars: for Effect on levels of neddylated cullins: HCC95, 10 μM dosed at 0 and 24 hours, harvested at 48 hours. Format: cell-based, human. For orientation: A western blot detects proteins with antibodies after separation by electrophoresis.
Experiment [3] relates to levels of CRL substrates in HCC95 cells. The experiment is described as follows: Immunoblot of cullin-RING ligase substrates, HCC95. Type of experiment: cell-based, human.
For the next experiment, the target named is NEDD8 E1 enzyme. Particulars: read-out: biochemical IC50; cited from earlier work.
For a further experiment, the target named is DCN1 (Homo sapiens, UniProt Q96GG9). The experiment is described as follows: Covalent adduct formation by LC-TOF mass spectrometry, DCN1. Format: binding. The settings on record: 30 μM PONY domain, 60 μM compound, overnight / 24-hour incubation.
Experiment [4] relates to anchorage independent growth of HCC95 cells. The experiment is described as follows: Soft agar colony formation assay. Type of experiment: cell-based, human. Particulars: 10 μM.
Experiment [5] concerns the target DCN1 (PONY domain) binding to N-terminally acetylated UBE2M peptide (Homo sapiens, UniProt Q96GG9).
A further experiment has as its target T1, DCN3 PONY domain (Homo sapiens, UniProt Q8IWE4).
T1 sequence (Q8IWE4 86-278 limits assumed): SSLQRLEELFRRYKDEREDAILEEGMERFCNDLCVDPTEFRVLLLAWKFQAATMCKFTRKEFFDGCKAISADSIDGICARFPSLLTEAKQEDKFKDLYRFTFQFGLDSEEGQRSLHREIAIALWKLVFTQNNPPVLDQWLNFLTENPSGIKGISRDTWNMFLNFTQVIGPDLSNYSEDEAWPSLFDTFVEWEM
The experiment is described as follows: Covalent adduct formation by TOF mass spectrometry, DCN3. Format: binding. Particulars: 30 μM PONY domain, 60 μM compound, overnight.

The target of a further experiment is C115A DCN1, C115G DCN1 (Homo sapiens, UniProt Q96GG9, C115A). The experiment is described as follows: Covalent adduct formation by TOF mass spectrometry, DCN1 Cys115 mutants. Type of experiment: binding.
For experiment [6], the target named is DCN1-dependent neddylation from AcUBE2M to CUL2CTD-RBX1 (Homo sapiens, UniProt Q96GG9). Type of experiment: biochemical.
The next experiment addresses T2, DCN4 (Homo sapiens, UniProt Q92564).
T2 sequence (Q92564 101-287 limits assumed): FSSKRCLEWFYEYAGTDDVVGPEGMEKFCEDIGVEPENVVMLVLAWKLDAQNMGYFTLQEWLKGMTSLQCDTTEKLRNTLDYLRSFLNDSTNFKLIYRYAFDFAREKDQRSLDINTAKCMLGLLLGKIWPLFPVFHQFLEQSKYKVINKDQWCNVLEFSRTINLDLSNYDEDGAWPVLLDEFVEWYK
Description: Pulse-chase neddylation assay with DCN4. Format: biochemical.

Another experiment concerns the target DCN2 PONY domain (Homo sapiens, UniProt Q6PH85). The experiment is described as follows: Covalent adduct formation by TOF mass spectrometry, DCN2. Format: binding. Particulars: 30 μM PONY domain, 60 μM compound, overnight.
A further experiment addresses T3, DCN5 (Homo sapiens, UniProt Q9BTE7).
T3 sequence (Q9BTE7 46-232 limits assumed): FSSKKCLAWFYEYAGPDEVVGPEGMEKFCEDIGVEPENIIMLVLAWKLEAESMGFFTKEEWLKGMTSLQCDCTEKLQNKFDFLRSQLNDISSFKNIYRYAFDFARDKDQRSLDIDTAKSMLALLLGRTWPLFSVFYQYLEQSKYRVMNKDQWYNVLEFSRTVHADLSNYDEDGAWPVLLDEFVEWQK
The experiment is described as follows: Pulse-chase neddylation assay with DCN5. Format: biochemical.

Another experiment has as its target T4, DCN5 PONY domain (Homo sapiens, UniProt Q9BTE7).
T4 sequence (Q9BTE7 46-232 limits assumed): T3 sequence (Q9BTE7 46-232 limits assumed)
The experiment is described as follows: Covalent adduct formation by TOF mass spectrometry, DCN5. Format: binding. Particulars: 30 μM PONY domain, 60 μM compound, overnight.

The next experiment has as its target T5, DCN4 PONY domain (Homo sapiens, UniProt Q92564).
T5 sequence (Q92564 101-287 limits assumed): T2 sequence (Q92564 101-287 limits assumed)
The experiment is described as follows: Covalent adduct formation by TOF mass spectrometry, DCN4. Format: binding. Particulars: 30 μM PONY domain, 60 μM compound, overnight.

In a further experiment the target is T6, DCN3 (Homo sapiens, UniProt Q8IWE4).
T6 sequence (Q8IWE4 86-278 limits assumed): T1 sequence (Q8IWE4 86-278 limits assumed)
The experiment is described as follows: Pulse-chase neddylation assay with DCN3. Type of experiment: biochemical.

The test system of experiment [7] is DCN1-independent NEDD8 ligation from AcUBE2M to CUL2CTD. Description: Pulse-chase assay, DCN1-independent neddylation. Format: biochemical, human.
Experiment [8] deals with UBE2M-DCN1 interaction in 293T cells (Homo sapiens, UniProt Q96GG9). The experiment is described as follows: Co-immunoprecipitation of DCN1 with UBE2M-FLAG-HA in cells. The settings on record: treated 24 hours. Format: cell-based.
A further experiment has as its target DCN2 (Homo sapiens, UniProt Q6PH85). Description: Pulse-chase neddylation assay with DCN2. Format: biochemical. The settings on record: 10 μM.
Experiment [9] has as its system N-acetyl-UBE2M interactions in 293T cells. The experiment is described as follows: AP-MS TMT interaction proteomics of UBE2M. Format: cell-based, human.
The mark [10] stands for this setting: even at concentrations of 100 μM.

Sequence of DCN1 (PONY domain) binding to N-terminally acetylated UBE2M peptide (Q96GG9 60-248 limits assumed): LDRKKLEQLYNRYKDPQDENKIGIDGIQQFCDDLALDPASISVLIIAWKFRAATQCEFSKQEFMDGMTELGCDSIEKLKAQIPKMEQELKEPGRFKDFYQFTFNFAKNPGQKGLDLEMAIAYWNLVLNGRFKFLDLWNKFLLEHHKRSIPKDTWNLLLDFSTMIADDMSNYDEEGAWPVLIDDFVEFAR
Sequence of DCN1-dependent neddylation from AcUBE2M to CUL2CTD-RBX1 (Q96GG9 60-248 limits assumed): as above
Sequence of DCN1 (Q96GG9 60-248 limits assumed): as above
Sequence of DCN2 (Q6PH85 60-248 limits assumed): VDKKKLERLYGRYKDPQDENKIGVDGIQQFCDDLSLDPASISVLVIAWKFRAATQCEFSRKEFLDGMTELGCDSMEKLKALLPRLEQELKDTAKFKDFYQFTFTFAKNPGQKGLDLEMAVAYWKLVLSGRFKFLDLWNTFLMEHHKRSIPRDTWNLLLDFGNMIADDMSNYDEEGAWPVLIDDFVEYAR
Sequence of DCN2 PONY domain (Q6PH85 60-248 limits assumed): as above
Sequence of C115A DCN1, C115G DCN1 (Q96GG9 62-259 C115A): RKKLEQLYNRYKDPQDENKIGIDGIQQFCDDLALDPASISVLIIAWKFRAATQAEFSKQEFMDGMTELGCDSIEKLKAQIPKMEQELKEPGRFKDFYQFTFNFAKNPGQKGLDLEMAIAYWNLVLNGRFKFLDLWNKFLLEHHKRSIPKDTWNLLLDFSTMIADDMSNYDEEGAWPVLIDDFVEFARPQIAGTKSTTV
Sequence of UBE2M-DCN1 interaction in 293T cells (Q96GG9 whole entry): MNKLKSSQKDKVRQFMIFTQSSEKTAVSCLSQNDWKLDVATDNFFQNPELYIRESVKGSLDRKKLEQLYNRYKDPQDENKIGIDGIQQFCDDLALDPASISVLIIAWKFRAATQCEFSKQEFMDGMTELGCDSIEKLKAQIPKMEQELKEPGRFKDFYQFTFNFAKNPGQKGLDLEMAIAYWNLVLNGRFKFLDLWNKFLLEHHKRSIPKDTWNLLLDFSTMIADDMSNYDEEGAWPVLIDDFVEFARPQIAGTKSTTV

For orientation: IC50 means the point on the concentration scale where inhibition reaches its midpoint. For `NS(=O)(=O)OC[C@@H]1C[C@@H](n2ccc3c(N[C@H]4CCc5ccccc54)ncnc32)C[C@@H]1O` [MLN4924], the “concentration at which cell based activity is penetrant” value in experiment [1] was 0.3 to 1 µM. For the same compound, in experiment [1] (total blockade of neddylation), the “Reduction of total cellular ubiquitination” value is recorded as 10–20%. For the same compound, the “Effect on neddylation in cells” value in [2] (single dose, 1 μM) is listed as “eliminates all neddylation”. Further, the “Levels of CRL substrates” value in experiment [3] (HCC95, MLN4924 1 μM) is listed as “high-level accumulation”. For the same compound, at NEDD8 E1 enzyme, the IC50 is 5 nM.
`C=CC(=O)Nc1ccccc1CN(C(=O)Nc1cccc(C(F)(F)F)c1)C1CCN(C(C)CCC)CC1` (stereo not drawn) [NAcM-COV, N-(2-((1-(1-(pentan-2-yl)piperidin-4-yl)-3-(3-(trifluoromethyl)phenyl)ureido)methyl)phenyl)acrylamide]: at DCN1, the “Covalent adduct formation with DCN1” value is “most effective; also recorded: corresponded to adducts”. The “Growth / colony formation of HCC95 cells in soft agar” value in experiment [4] was “blocks growth”. Also, the “Potency increase by electrophile, NAcM-COV versus NAcM-COVCTRL, TR-FRET” value in experiment [5] was over 30 fold. Besides, the “Effect on levels of neddylated cullins” value in experiment [2] is reported as “reduced levels of neddylated cullins; also recorded: most potent inhibition”. Further, the “Covalent adduct formation with DCN3” value on DCN3 PONY domain is “corresponded to adducts”. The “Covalent adduct formation with DCN1 Cys115 replaced by Ala or Gly” value on C115A DCN1, C115G DCN1 is “prevented covalent adduct formation”. In experiment [6], the “Potency increase by electrophile, NAcM-COV versus NAcM-COVCTRL, neddylation” value was determined as 2.5 fold. Also, the “Activity towards DCN4” value at DCN4 (50 μM) was “Partial activity”. Further, on DCN2 PONY domain, the “Covalent adduct formation with DCN2” value was “corresponded to adducts”. Besides, on DCN5, the “Inhibition of DCN5” value is given as “lack of inhibition”. For the same compound, the “Covalent adduct formation with DCN5” value at DCN5 PONY domain is on record as “no evidence of covalent linkage”. Besides, the “Covalent adduct formation with DCN4” value on DCN4 PONY domain is “Both modified and unmodified forms”. The “Activity towards DCN3” value at DCN3 (50 μM) is on record as “Partial activity”.
As to `CCCC(C)N1CCC(N(Cc2ccccc2NC(=O)CC)C(=O)Nc2cccc(C(F)(F)F)c2)CC1` (stereo not drawn) [NAcM-COVCTRL, N-(2-((1-(1-(pentan-2-yl)piperidin-4-yl)-3-(3-(trifluoromethyl)phenyl)ureido)methyl)phenyl)propionamide], in [2], the “Effect on levels of neddylated cullins” value is reported as “relatively reduced potency”.
For `O=C(Nc1cccc(C(F)(F)F)c1)NC1CCN(Cc2ccccc2)CC1` [NAcM-HIT, 1-(1-benzylpiperidin-4-yl)-3-(3-(trifluoromethyl)phenyl)urea], in experiment [7], the “Inhibition of DCN1-independent NEDD8 ligation” value is recorded as “did not inhibit”.
As to `CCCCN1CCC(N(Cc2ccccc2)C(=O)Nc2cccnc2)CC1` [NAcM-NEG, 1-benzyl-1-(1-butylpiperidin-4-yl)-3-(pyridin-3-yl)urea], the “Effect on DCN1-UBE2M interaction by TR-FRET” value in [5] (setting [10]) was “no effect”. The “Effect on levels of neddylated cullins” value in experiment [2] was “no effect”. Moreover, the “Effect on neddylation by enzyme assays” value in [6] (setting [10]) is given as “no effect”. Moreover, the “Co-precipitation of DCN1 with UBE2M” value in experiment [8] is recorded as “interaction was observed”.
For `CCCCN1CCC(N(Cc2ccccc2)C(=O)Nc2ccc(Cl)c(Cl)c2)CC1` [NAcM-OPT, 1-benzyl-1-(1-butylpiperidin-4-yl)-3-(3,4-dichlorophenyl)urea], in experiment [4], the “Growth / colony formation of HCC95 cells in soft agar” value is on record as “blocks growth”. For the same compound, the “Enhanced potency relative to NAcM-HIT, TR-FRET” value in [5] worked out at 100 fold. Besides, the “Effect on levels of neddylated cullins” value in experiment [2] is recorded as “reduced levels of neddylated cullins”. For the same compound, the “Increased potency toward the neddylation reaction relative to NAcM-HIT” value in [6] is reported as 25 fold. In addition, on DCN4 (10 μM), the “Activity toward DCN4” value is “no activity”. Also, on DCN5 (10 μM), the “Activity toward DCN5” value was “no activity”. The “Inhibition of DCN2-stimulated neddylation” value on DCN2 is on record as “inhibited”. Besides, in experiment [3] (HCC95, 10 μM), the “Levels of CRL substrates” value was “Neither NAcM-OPT treatment nor DCN1 shRNA stabilizes”. In addition, the “Activity toward DCN3” value on DCN3 (10 μM) is recorded as “no activity”. For the same compound, in experiment [9], the “Fold decrease in UBE2M binding: CUL3” value amounted to 1.9 fold, the “Fold decrease in UBE2M binding: CUL5” value is 3.2 fold and the “Fold decrease in UBE2M binding: DCN1” value is reported as “≈ 8 fold”.
